Molecular target: T1, F508del (Homo sapiens, UniProt P13569, DEL508-508)
T1 construct: expressed in transfected cells
Assay: Protocol 2: FRET membrane potential optical assay (VIPR), identification of correction compounds
Assay type: cell-based
Conditions: F508del CFTR modulator activity; compounds of Table 1; read-out: EC30
In short: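 Corrector readout: membrane-potential FRET (CC2-DMPE donor, DiSBAC2(3) acceptor) on VIPR II after Cl⁻-free gluconate bath with 10 μM forskolin and 20 μM genistein. Before this, F508del-expressing NIH3T3 cells were exposed to test compound for 16 h at 37 °C without serum; 27 °C incubation served as temperature-correction control.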

T1 sequence (P13569 with tags, fused parts or gaps DEL508-508): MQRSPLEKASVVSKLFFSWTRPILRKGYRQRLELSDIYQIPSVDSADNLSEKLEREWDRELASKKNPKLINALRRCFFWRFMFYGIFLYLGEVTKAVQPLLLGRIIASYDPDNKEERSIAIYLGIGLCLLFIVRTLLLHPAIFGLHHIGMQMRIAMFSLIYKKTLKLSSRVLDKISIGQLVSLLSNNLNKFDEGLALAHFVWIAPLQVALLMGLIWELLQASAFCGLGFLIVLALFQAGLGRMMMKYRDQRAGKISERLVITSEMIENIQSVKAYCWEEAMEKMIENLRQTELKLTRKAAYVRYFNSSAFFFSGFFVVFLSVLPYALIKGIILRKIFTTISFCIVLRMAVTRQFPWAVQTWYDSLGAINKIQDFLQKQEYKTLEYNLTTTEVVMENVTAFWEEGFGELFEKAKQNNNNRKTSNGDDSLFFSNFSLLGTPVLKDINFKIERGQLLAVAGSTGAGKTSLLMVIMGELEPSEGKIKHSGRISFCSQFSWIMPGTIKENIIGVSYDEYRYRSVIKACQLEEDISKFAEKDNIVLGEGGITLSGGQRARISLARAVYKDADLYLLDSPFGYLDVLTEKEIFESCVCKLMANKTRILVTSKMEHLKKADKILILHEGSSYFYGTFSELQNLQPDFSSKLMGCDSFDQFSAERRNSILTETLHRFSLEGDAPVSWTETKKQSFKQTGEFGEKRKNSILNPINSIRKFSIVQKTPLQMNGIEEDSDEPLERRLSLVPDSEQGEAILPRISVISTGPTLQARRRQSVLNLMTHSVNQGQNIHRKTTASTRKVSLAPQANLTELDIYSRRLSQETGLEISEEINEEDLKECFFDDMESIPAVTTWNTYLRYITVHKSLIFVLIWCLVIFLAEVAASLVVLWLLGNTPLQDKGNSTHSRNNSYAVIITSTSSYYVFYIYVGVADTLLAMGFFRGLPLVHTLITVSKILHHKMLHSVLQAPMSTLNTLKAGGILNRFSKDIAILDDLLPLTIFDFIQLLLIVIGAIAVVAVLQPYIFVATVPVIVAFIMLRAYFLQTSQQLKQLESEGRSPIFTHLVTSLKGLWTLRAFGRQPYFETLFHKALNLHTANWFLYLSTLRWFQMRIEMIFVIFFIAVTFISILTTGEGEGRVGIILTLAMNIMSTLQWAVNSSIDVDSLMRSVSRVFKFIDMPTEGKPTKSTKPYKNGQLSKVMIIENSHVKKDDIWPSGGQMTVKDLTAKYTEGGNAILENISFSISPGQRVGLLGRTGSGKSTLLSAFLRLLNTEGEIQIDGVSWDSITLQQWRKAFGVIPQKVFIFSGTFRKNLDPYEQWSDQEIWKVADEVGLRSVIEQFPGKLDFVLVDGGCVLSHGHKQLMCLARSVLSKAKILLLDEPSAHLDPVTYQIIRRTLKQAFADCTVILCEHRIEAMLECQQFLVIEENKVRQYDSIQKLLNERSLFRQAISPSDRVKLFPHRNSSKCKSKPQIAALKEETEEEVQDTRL

Structure (SMILES) | EC30 [µM]
CC(C)COc1cc(F)cc(-c2ccc(C(=O)NS(=O)(=O)c3cccc(N)n3)c(N3CC(C(C)C)CC3(C)C)n2)c1 (stereo not drawn) [Compound 2201, N-[(6-amino-2-pyridyl)sulfonyl]-6-(3-fluoro-5-isobutoxy-phenyl)-2-(4-isopropyl-2,2-dimethyl-pyrrolidin-1-yl)pyridine-3-carboxamide] | < 3
CC1CN(c2ncccc2C(=O)NS(=O)(=O)c2cccc(OCCN)n2)C(C)(C)C1 (stereo not drawn) [Compound 2742] | 3 to 10
CC(C)COc1cc(F)cc(-c2ccc(C(=O)NS(=O)(=O)c3cccc(N)n3)c(N3CCC[C@@H]3C(=O)OC(C)(C)C)n2)c1 [Compound 2216, tert-butyl (2R)-1-[3-[(6-amino-2-pyridyl)sulfonylcarbamoyl]-6-(3-fluoro-5-isobutoxy-phenyl)-2-pyridyl]pyrrolidin-2-carboxylate] | < 3
CC1CN(c2ncccc2C(=O)NS(=O)(=O)c2cccc(NC3CCCCCCC3)n2)C(C)(C)C1 (stereo not drawn) [Compound 2202, N—[[6-(cyclooctylamino)-2-pyridyl]sulfonyl]-2-(2,2,4-trimethylpyrrolidin-1-yl)pyridine-3-carboxamide] | < 3
C[C@@H]1CN(c2nc(-c3ccc(F)cc3F)ccc2C(=O)NS(=O)(=O)c2cccc(N)n2)C(C)(C)C1 [Compound 2372, N-[(6-amino-2-pyridyl)sulfonyl]-6-(2,4-difluorophenyl)-2-[(4S)-2,2,4-trimethylpyrrolidin-1-yl]pyridine-3-carboxamide] | < 3
Cc1ccnc(Nc2cccc(S(=O)(=O)NC(=O)c3cccnc3N3CC(C)CC3(C)C)n2)c1 (stereo not drawn) [Compound 2082, N—[[6-[(4-methyl-2-pyridyl)amino]-2-pyridyl]sulfonyl]-2-(2,2,4-trimethylpyrrolidin-1-yl)pyridine-3-carboxamide] | 3 to 10
CC(C)CC/C=C/c1cnc(N2CC(C)CC2(C)C)c(C(=O)NS(=O)(=O)c2cccc(N)n2)c1 (stereo not drawn) [Compound 2647, N-[(6-amino-2-pyridyl)sulfonyl]-5-[(E)-5-methylhex-1-enyl]-2-(2,2,4-trimethylpyrrolidin-1-yl)pyridine-3-carboxamide] | < 3
CCOc1ccc(C)cc1-c1ccc(C(=O)NS(=O)(=O)c2ccc[nH]c2=O)c(N2C[C@@H](C)CC2(C)C)n1 [Compound 2410, 6-(2-ethoxy-5-methyl-phenyl)-N-[(2-oxo-1H-pyridin-3-yl)sulfonyl]-2-[(4S)-2,2,4-trimethylpyrrolidin-1-yl]pyridine-3-carboxamide] | < 3
CC1CN(c2ncc(/C=C/c3ccc(C(F)(F)F)cc3)cc2C(=O)NS(=O)(=O)c2cccc(N)n2)C(C)(C)C1 (stereo not drawn) [Compound 2014, N-[(6-amino-2-pyridyl)sulfonyl]-5-[(E)-2-[4-(trifluoromethyl)phenyl]vinyl]-2-(2,2,4-trimethylpyrrolidin-1-yl)pyridine-3-carboxamide] | < 3
CC(C)COc1cc(F)cc(-c2ccc(C(=O)NS(=O)(=O)c3cccc(N)n3)c(C3=CC(C)CC3(C)C)n2)c1 (single isomer, unassigned) [Compound 2039, N-[(6-amino-2-pyridyl)sulfonyl]-6-(3-fluoro-5-isobutoxy-phenyl)-2-(3,5,5-trimethylcyclopenten-1-yl)pyridine-3-carboxamide] | < 3
COc1cc(-c2ccc(C(=O)NS(=O)(=O)c3cccnc3N)c(N3C[C@@H](C)CC3(C)C)n2)ccn1 [Compound 2646, N-[(2-amino-3-pyridyl)sulfonyl]-6-(2-methoxy-4-pyridyl)-2-[(4S)-2,2,4-trimethylpyrrolidin-1-yl]pyridine-3-carboxamide] | < 3
COc1ccc(OC)c(CNc2cccc(S(=O)(=O)NC(=O)c3cccnc3N3CC(C)CC3(C)C)n2)c1 (stereo not drawn) [Compound 2722] | < 3
COc1cccc(-c2ccc(C(=O)NS(=O)(=O)c3ccc[nH]c3=O)c(N3C[C@@H](C)CC3(C)C)n2)n1 [Compound 2101, 6-(6-methoxy-2-pyridyl)-N-[(2-oxo-1H-pyridin-3-yl)sulfonyl]-2-[(4S)-2,2,4-trimethylpyrrolidin-1-yl]pyridine-3-carboxamide] | < 3
COc1cc(-c2ccc(C(=O)NS(=O)(=O)c3cccnc3N)c(N3C[C@@H](C)CC3(C)C)n2)ccc1O [Compound 2614, N-[(2-amino-3-pyridyl)sulfonyl]-6-(4-hydroxy-3-methoxy-phenyl)-2-[(4S)-2,2,4-trimethylpyrrolidin-1-yl]pyridine-3-carboxamide] | 3 to 10
C[C@@H]1CN(c2nc(C3CC4CCC3C4)ccc2C(=O)NS(=O)(=O)c2cccnc2N)C(C)(C)C1 (stereo partly drawn) [Compound 2097, N-[(2-amino-3-pyridyl)sulfonyl]-6-norbornan-2-yl-2-[(4S)-2,2,4-trimethylpyrrolidin-1-yl]pyridine-3-carboxamide] | < 3
CCOc1ccc(-c2cnc(N3CC(C)CC3(C)C)c(C(=O)NS(=O)(=O)c3cccc(N)n3)c2)cn1 (stereo not drawn) [Compound 2384, N-[(6-amino-2-pyridyl)sulfonyl]-5-(6-ethoxy-3-pyridyl)-2-(2,2,4-trimethylpyrrolidin-1-yl)pyridine-3-carboxamide] | < 3
CCC1(C)C[C@@H](C)CN1c1nc(-c2cc(F)cc(OCC(C)C)c2)ccc1C(=O)NS(=O)(=O)c1cccc(N)n1 (single isomer, unassigned) [Compound 2058, N-[(6-amino-2-pyridyl)sulfonyl]-2-(2-ethyl-2,4-dimethyl-pyrrolidin-1-yl)-6-(3-fluoro-5-isobutoxy-phenyl)pyridine-3-carboxamide] | < 3

Same assay, conditions: Table 3; compounds of Table 1 as modulators of CFTR activity; protocol not stated

Structure (SMILES) | EC30
CCCc1ccccc1-c1cnc(Oc2c(C)cc(C)cc2C)c(C(=O)NS(=O)(=O)c2cccc(N)n2)c1 [Compound 429, N-[(6-amino-2-pyridyl)sulfonyl]-5-(2-propylphenyl)-2-(2,4,6-trimethylphenoxy)pyridine-3-carboxamide] | +++ (“+++” means <3 uM)
CCOC(=O)Cc1ccc(-c2cc(C(=O)NS(=O)(=O)c3ccccc3)n(Cc3c(C)cccc3C)n2)cc1 [Compound 21, ethyl 2-[4-[5-(benzenesulfonylcarbamoyl)-1-[(2,6-dimethylphenyl)methyl]pyrazol-3-yl]phenyl]acetate] | +++ (“+++” means <3 uM)
CC(C)Cn1cc(-c2ccc(C(=O)NS(=O)(=O)c3cccc(N)n3)c(N3CC(C)CC3(C)C)n2)cn1 (stereo not drawn) [Compound 631, N-[(6-amino-2-pyridyl)sulfonyl]-6-(1-isobutylpyrazol-4-yl)-2-(2,2,4-trimethylpyrrolidin-1-yl)pyridine-3-carboxamide] | +++ (“+++” means <3 uM)
Cc1cc(C)c(Oc2nc3c(cc2C(=O)NS(=O)(=O)c2cccc(N)n2)CCCC3)c(C)c1 [Compound 285, N-[(6-amino-2-pyridyl)sulfonyl]-2-(2,4,6-trimethylphenoxy)-5,6,7,8-tetrahydroquinoline-3-carboxamide] | +++ (“+++” means <3 uM)
Cc1ccc2c(c1)cc(C(=O)NS(=O)(=O)c1cccc(N)n1)n2Cc1c(C)cc(C#N)cc1C [Compound 67, N-[(6-amino-2-pyridyl)sulfonyl]-1-[(4-cyano-2,6-dimethyl-phenyl)methyl]-5-methyl-indole-2-carboxamide] | ++ (“++” means between 3 uM and 10 uM)
Cc1cc(C)c(Cn2c(C(=O)NS(=O)(=O)c3ccncc3)cc3c(Cl)cccc32)c(C)c1 [Compound 82, 4-chloro-N-(4-pyridylsulfonyl)-1-[(2,4,6-trimethylphenyl)methyl]indole-2-carboxamide] | +++ (“+++” means <3 uM)
Cc1ccc(-c2nc(-c3cc(F)cc(OC(C)C)c3)ccc2C(=O)NS(=O)(=O)c2cccc(N)n2)cc1 [Compound 722, N-[(6-amino-2-pyridyl)sulfonyl]-6-(3-fluoro-5-isopropoxy-phenyl)-2-(p-tolyl)pyridine-3-carboxamide] | + (“+” means greater than 10 uM)
Cc1cc(C)c(Oc2nc(-c3cc(CO)ccc3F)ccc2C(=O)NS(=O)(=O)c2cccc(N)n2)c(C)c1 [Compound 727, N-[(6-amino-2-pyridyl)sulfonyl]-6-[2-fluoro-5-(hydroxymethyl)phenyl]-2-(2,4,6-trimethylphenoxy)pyridine-3-carboxamide] | + (“+” means greater than 10 uM)
Cc1cc(C)c(Oc2nc(-c3ccc(C(F)(F)F)nc3)ccc2C(=O)NS(=O)(=O)c2cccc(N)n2)c(C)c1 [Compound 132, N-[(6-amino-2-pyridyl)sulfonyl]-6-[6-(trifluoromethyl)-3-pyridyl]-2-(2,4,6-trimethylphenoxy)pyridine-3-carboxamide] | +++ (“+++” means <3 uM)
COc1c(F)cccc1-c1ccc(C(=O)NS(=O)(=O)c2cccc(N)n2)c(Oc2c(C)cc(C)cc2C)n1 [Compound 396, N-[(6-amino-2-pyridyl)sulfonyl]-6-(3-fluoro-2-methoxy-phenyl)-2-(2,4,6-trimethylphenoxy)pyridine-3-carboxamide] | +++ (“+++” means <3 uM)
Cc1ccccc1-c1ccc(C(=O)NS(=O)(=O)c2cccc(N)n2)c(N2CC(C)CC2(C)C)n1 (stereo not drawn) [Compound 761, N-[(6-amino-2-pyridyl)sulfonyl]-6-(o-tolyl)-2-(2,2,4-trimethylpyrrolidin-1-yl)pyridine-3-carboxamide] | +++ (“+++” means <3 uM)
COCC1CCN(c2nc(-c3ccc(OC(C)C)nc3)ccc2C(=O)NS(=O)(=O)c2cccc(N)n2)CC1 [Compound 606, N-[(6-amino-2-pyridyl)sulfonyl]-6-(6-isopropoxy-3-pyridyl)-2-[4-(methoxymethyl)-1-piperidyl]pyridine-3-carboxamide] | ++ (“++” means between 3 uM and 10 uM)
CC(C)COc1cc(F)cc(-c2ccc(C(=O)NS(=O)(=O)c3cccc(N)n3)c(N3CC[C@@H](C)C3(C)C)n2)c1 [Compound 657, N-[(6-amino-2-pyridyl)sulfonyl]-6-(3-fluoro-5-isobutoxy-phenyl)-2-[(3R)-2,2,3-trimethylpyrrolidin-1-yl]pyridine-3-carboxamide] | +++ (“+++” means <3 uM)

Reference: patent publication US10758534B2 (Vertex Pharmaceuticals Incorporated, priority 2014, dated 2020)
